Tests used:
Type in all cases: cell-based
[1] = target: PERK oligomers (HEK-293 cells) (Homo sapiens (Human), UniProt Q9NZJ5); experiment: Detection of PERK oligomerization using NanoBRET; conditions: HEK-293, 4 h, FIG. 2; read-out: stimulation of the formation of PERK oligomers EC50
Protocol: Constructs for BRET were built using the NanoBRET™ Flexi® PPI Starter System (Promega, Madison, WI). The full-length PERK ORF was obtained from Genscript (Piscataway, NJ). HEK-293 cells (catalog #CRL-1573) were obtained from the American Type Culture Collection (ATTC, Manassas, VA). Cells were grown in MEM medium supplemented with 10% heat-inactivated fetal bovine serum (Invitrogen, Carlsbad, CA) and 1% Penicillin/Streptomycin/L-Glutamine at 37° C., 5% CO2, and 95% humidity. For BRET assays, cells were seeded at a density of 40,000 cells/mL in culture medium in 6-well plates and allowed to attach and recover. Cells were transfected with C-terminally tagged PERK-NLuc and C-terminally tagged PERK-Halo using Lipofectamine LTX (Thermo, Waltham, MA) and allowed to express proteins overnight at 37° C., 5% CO2, and 95% humidity. Cells were then detached from culture dishes using 0.05% trypsin-EDTA, collected, and diluted in assay medium consisting of Opti-MEM® I Reduced Serum Medium supplemented with 4% FBS (Thermo) to 22,000 cells/mL. Cells were dispensed into 96-well cell culture plates and HaloTag® NanoBRET™ 618 Ligand (Promega) was added to a final concentration of 100 nM. […] Donor ([…]) and acceptor (618) emissions were measured on a Synergy Neo2 Multi-Mode Reader (BioTek, Winooski, VT) within 10 min of substrate addition. […]

[2] = system: RPMI8226 Multiple Myeloma cells; experiment: Cell proliferation, combination with standard of care, RPMI8226; conditions: Homo sapiens, RPMI-8226; with 333 nM dexamethasone, 96 h, FIG. 6A; read-out: inhibition of cell proliferation IC50, combination treatment
Protocol: (§1) H929, RPMI8226, GA-10 and DoHH-2 cells (catalog #CRL-9068) were obtained from the American Type Culture Collection (ATTC, Manassas, VA). H929 Cells were maintained in RPMI-1640 medium supplemented with 20% heat-inactivated fetal bovine serum (catalog #A3840002, ThermoFisher Scientific, Waltham, MA), 1% Penicillin/Streptomycin/L-Glutamine (catalog #10378016, ThermoFisher Scientific, Waltham, MA), and 0.05 mM 2-mercaptoethanol (catalog #21985-023, ThermoFisher Scientific, Waltham, MA). […]
(§2) For cell proliferation assay appropriate number of cells (Forty thousand cells for H929. Twenty thousand cells for RPMI8226 and GA-10. Eight thousand cells for DoHH-2) were seeded per well in 200 μL in respective medium were dispensed into a 96-well black clear bottom plate. […] Plates were read on a Synergy2 or equivalent reader (Biotek, Winooski VT) using an excitation of 540 nm and an emission of 600 nm. At the end of the incubation of DoHH-2, cell viability was determined using CellTiter-Glo® assay (Promega, Madison, WI). Luminescence was measured using EnVision MultiLabel Reader (PerkinElmer, Waltham, MA). Data was analyzed using GraphPad Prism software (GraphPad, San Diego, CA) to calculate IC50 values.

[3] = system: GA-10 Burkitt lymphoma cells; experiment: Cell proliferation, combination with standard of care, GA-10; conditions: Homo sapiens, with 50 nM dexamethasone, 96 h, FIG. 6C, read-out: inhibition of cell proliferation IC50, combination treatment
Protocol: as §1, §2

[4] = system: H358 spheroids; experiment: Spheroid Western blot assay, H358
Protocol: NSCLC cell lines H358 (catalog #CRL-5807) and H2030 (catalog #CRL-5914), and fibrosarcoma cell line HT-1080 (catalog […]) were obtained from the American Type Culture Collect (ATTC, Manassas, VA). Cells were grown in RPMI-1640 medium supplemented with 10% heat-inactivated fetal bovine serum and 1% Penicillin/Streptomycin/L-Glutamine (Invitrogen, Carlsbad, CA) at 37° C., 5% CO2, and 95% humidity and maintained at 50-80% confluency until use. Cells were plated at 500,000 cells/well in 24-well Elplasia plates (Corning, Glendale, AZ) with complete growth media at 1 mL/well and incubated overnight at 37° C., 5% CO2, and 95% humidity to form spheroids. The next day, serial dilutions of test compounds were prepared in complete growth media and 500 μL existing media was removed from each well and replaced with fresh media containing compound titers. Spheroids were then incubated with test compounds for 4 hours or 24 hours under the same conditions. […] Western blots were performed to quantify phospho-GCN2 (R&D Systems, Minneapolis, MN), ATF4, CHOP, cleaved PARP, cleaved Caspase 3 and 7, and beta-Actin (Cell Signaling Technology, Danvers, MA). […]

Chain of PERK oligomers (HEK-293 cells) (Q9NZJ5 30-1116): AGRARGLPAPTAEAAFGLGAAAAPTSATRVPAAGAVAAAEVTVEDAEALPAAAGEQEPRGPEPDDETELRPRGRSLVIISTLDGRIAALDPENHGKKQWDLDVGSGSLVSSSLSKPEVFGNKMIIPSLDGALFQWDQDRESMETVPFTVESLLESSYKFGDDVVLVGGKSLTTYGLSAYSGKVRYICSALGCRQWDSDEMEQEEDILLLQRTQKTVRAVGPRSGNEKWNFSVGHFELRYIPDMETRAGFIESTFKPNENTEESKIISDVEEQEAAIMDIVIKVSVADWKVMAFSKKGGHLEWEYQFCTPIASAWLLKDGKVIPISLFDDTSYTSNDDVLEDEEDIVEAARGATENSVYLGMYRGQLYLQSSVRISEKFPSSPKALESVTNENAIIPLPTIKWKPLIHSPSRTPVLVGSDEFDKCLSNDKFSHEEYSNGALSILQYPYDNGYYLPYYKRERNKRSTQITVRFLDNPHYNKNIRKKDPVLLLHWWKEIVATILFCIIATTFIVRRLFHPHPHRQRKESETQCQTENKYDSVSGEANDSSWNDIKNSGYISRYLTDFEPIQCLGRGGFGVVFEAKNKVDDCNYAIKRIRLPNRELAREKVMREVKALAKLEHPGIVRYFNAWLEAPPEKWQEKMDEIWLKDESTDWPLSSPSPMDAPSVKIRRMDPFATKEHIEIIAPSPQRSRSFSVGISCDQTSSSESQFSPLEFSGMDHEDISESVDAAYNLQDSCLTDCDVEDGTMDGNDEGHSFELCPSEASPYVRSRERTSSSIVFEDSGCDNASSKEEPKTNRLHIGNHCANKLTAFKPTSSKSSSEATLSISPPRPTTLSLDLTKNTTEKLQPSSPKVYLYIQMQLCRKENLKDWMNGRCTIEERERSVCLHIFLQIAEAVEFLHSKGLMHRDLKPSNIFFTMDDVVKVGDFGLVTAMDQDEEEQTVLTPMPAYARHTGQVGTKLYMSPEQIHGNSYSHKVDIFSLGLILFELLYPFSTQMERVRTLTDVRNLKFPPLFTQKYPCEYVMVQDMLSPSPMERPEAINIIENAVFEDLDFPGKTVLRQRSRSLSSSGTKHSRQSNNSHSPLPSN
Chain of PERK oligomers (HEK-293 cells) (Q9NZJ5 30-1116): as above

Cn1cc(-c2cccc(NS(=O)(=O)c3cc(Cl)cc(CO)c3Cl)c2F)c2c(N)ncnc21 [Example 2, N-(3-(4-amino-7-methyl-7H-pyrrolo[2,3-d]pyrimidin-5-yl)-2-fluorophenyl)-2,5-dichloro-3-(hydroxymethyl)benzenesulfonamide]
EC50 [1]: 1.6 nM
IC50 [2]: 7 nM
IC50 [3]: 4 nM
upregulation of ATF4 (Western blot quantification) [4]: ≤ 12 fold

From US20230382915A1, “GCN2 AND PERK KINASE INHIBITORS AND METHODS OF USE THEREOF” (Deciphera Pharmaceuticals, LLC, priority 2021, published 2023)
